According to US20130289070A1, “Use of Levocabastine for Modulating Generation of Pro-Inflammatory Cytokines” (Bausch & Lomb Incorporated, priority 2007, published 2013):

Tested on: EoL-1 (human eosinophilic leukaemia cell line) cells
Assay: TNF-α-induced cytokine release, EoL-1 cells differentiated with PMA (Luminex)
Format: cell-based
Parameters: key to IL-1α (PMA), p of decrement / IL-1β (PMA), p of decrement / IL-1ra (PMA), p of decrement / IL-5 (PMA), p of decrement / IL-7 (PMA), p of decrement / IL-8 (PMA), p of decrement / IP-10 (PMA), p of decrement / MCP-1 (PMA), p of decrement / MIP-1β (PMA), p of decrement / RANTES (PMA), p of decrement / VEGF (PMA), p of decrement / Fractalkine (PMA), p of decrement / MIP-1α (PMA), p of decrement: ns = non significant
Method: EoL-1 (human eosinophilic leukaemia cell line) cells (Saito et al., 1985; Mayumi, 1992) were maintained in RPMI-1640 medium with L-glutamine supplemented with 10% (v/v) FBS at 37° C. in a humidified atmosphere with 5% CO2. Where indicated, 24 h before the experiment 25 ng/mL PMA ((phorbol 12-myristate 13-acetate, purchased from Sigma Aldrich) was added to the medium to induce eosinophil granulation and differentiation (Ohtsu et al., 1993; Zimmermann et al., 2000).
Half-million cells were aliquoted per point in a 24 well plate; each experiment was performed in triplicate and carried out in parallel with eosinophils differentiated and non differentiated with PMA (25 ng/mL, 24 h). Cells were suspended in low serum medium (RPMI-1640, 0.1% (v/v) FBS). TNF-α was used to induce cytokine secretion as previously described by Steube et al. (2000), and the net release was obtained by comparison to the basal (non-TNF-α treated). In the first experiment we evaluated the concentration and time relation between TNF-α stimulation and cytokine release. Therefore, 5, 10, and 25 ng/mL of TNF-α was administered to the cells at 0, ½, 1, 2, 3, 6, 12 and 24 h (data not shown). An aliquot of 150 μL of supernate was collected for cytokines' analysis. […] Differentiated and non-differentiated EoL-1 cells were exposed from 0.1 to 2.3 mM levocabastine ([…]Levocabastine 0.05% solution eye drops containing cyclodextrins, without benzalkonium chloride), and aliquots of the supernates were collected after 12 and 24 h. The content of cytokines at time zero was estimated by treating the cells with 400 nM calcimycin (A-23187), which is a cytolytic agent that frees all the mediators from the cytoplasmic compartment. In addition, for each experiment we tested the effect of the vehicle, which was added to the wells in a concentration equal to the maximum amount used for drug dilution.
Samples (supernates 12 and 24 h) in triplicate were analyzed using Luminex 200™ (Luminex, Austin, Tex.) and Beadview software v1.0 (Upstate Cell Signaling Solutions, Temecula, Calif.).
All data are presented as mean±SEM for the indicated number of experiments. Statistical significance was determined by Newman-Keuls test after ANOVA using GraphPad Prism (version 3.0; GraphPad Software Inc., San Diego, Calif., USA). P-values<0.05 were considered to be significant.

[1] = 24 h, VCAM-1 + Levocabastine 2 mM vs VCAM-1

C[C@@H]1CN([C@H]2CC[C@](C#N)(c3ccc(F)cc3)CC2)CC[C@]1(C(=O)O)c1ccccc1 [Levocabastine, levocabastine]
p < 0.01: Fractalkine (PMA), p of decrement (24 h, TNF-α vs Lev 2.3 mM) | VEGF (PMA), p of decrement (24 h, TNF-α vs Lev 2.3 mM)
able to reduce: IL-8 release (FIG. 9) (PMA differentiated EoL-1 cells after TNF-α challenge)
ns: IP-10 (PMA), p of decrement (24 h, TNF-α vs Lev 0.1 mM) | MCP-1 (PMA), p of decrement (24 h, TNF-α vs Lev 0.1 mM) | MIP-1α (PMA), p of decrement (24 h, TNF-α vs Lev 0.1 mM) | MIP-1β (PMA), p of decrement (24 h, TNF-α vs Lev 0.1 mM) | RANTES (PMA), p of decrement (24 h, TNF-α vs Lev 0.1 mM) | VEGF (PMA), p of decrement (24 h, TNF-α vs Lev 0.1 mM) | Fractalkine (PMA), p of decrement (24 h, TNF-α vs Lev 0.5 mM) | IL-1ra (PMA), p of decrement (24 h, TNF-α vs Lev 0.5 mM) | IL-1α (PMA), p of decrement (24 h, TNF-α vs Lev 0.5 mM) | IL-1β (PMA), p of decrement (24 h, TNF-α vs Lev 0.5 mM) | IL-5 (PMA), p of decrement (24 h, TNF-α vs Lev 0.5 mM) | IL-7 (PMA), p of decrement (24 h, TNF-α vs Lev 0.5 mM) | IL-8 (PMA), p of decrement (24 h, TNF-α vs Lev 0.5 mM) | IP-10 (PMA), p of decrement (24 h, TNF-α vs Lev 0.5 mM) | MCP-1 (PMA), p of decrement (24 h, TNF-α vs Lev 0.5 mM) | MIP-1α (PMA), p of decrement (24 h, TNF-α vs Lev 0.5 mM) | MIP-1β (PMA), p of decrement (24 h, TNF-α vs Lev 0.5 mM) | RANTES (PMA), p of decrement (24 h, TNF-α vs Lev 0.5 mM) | VEGF (PMA), p of decrement (24 h, TNF-α vs Lev 0.5 mM) | Fractalkine (PMA), p of decrement (24 h, TNF-α vs Lev 1.0 mM) | IL-1ra (PMA), p of decrement (24 h, TNF-α vs Lev 1.0 mM) | IL-1α (PMA), p of decrement (24 h, TNF-α vs Lev 1.0 mM) | IL-5 (PMA), p of decrement (24 h, TNF-α vs Lev 1.0 mM) | IL-7 (PMA), p of decrement (24 h, TNF-α vs Lev 1.0 mM) | IL-8 (PMA), p of decrement (24 h, TNF-α vs Lev 1.0 mM) | IP-10 (PMA), p of decrement (24 h, TNF-α vs Lev 1.0 mM) | MCP-1 (PMA), p of decrement (24 h, TNF-α vs Lev 1.0 mM) | MIP-1α (PMA), p of decrement (24 h, TNF-α vs Lev 1.0 mM) | MIP-1β (PMA), p of decrement (24 h, TNF-α vs Lev 1.0 mM) | RANTES (PMA), p of decrement (24 h, TNF-α vs Lev 1.0 mM) | IL-1ra (PMA), p of decrement (24 h, TNF-α vs Lev 2.3 mM) | IL-1α (PMA), p of decrement (24 h, TNF-α vs Lev 2.3 mM) | IL-1β (PMA), p of decrement (24 h, TNF-α vs Lev 2.3 mM) | IL-5 (PMA), p of decrement (24 h, TNF-α vs Lev 2.3 mM) | IL-7 (PMA), p of decrement (24 h, TNF-α vs Lev 2.3 mM) | IL-8 (PMA), p of decrement (24 h, TNF-α vs Lev 2.3 mM) | IP-10 (PMA), p of decrement (24 h, TNF-α vs Lev 2.3 mM) | MCP-1 (PMA), p of decrement (24 h, TNF-α vs Lev 2.3 mM) | MIP-1α (PMA), p of decrement (24 h, TNF-α vs Lev 2.3 mM) | MIP-1β (PMA), p of decrement (24 h, TNF-α vs Lev 2.3 mM) | RANTES (PMA), p of decrement (24 h, TNF-α vs Lev 2.3 mM) | Fractalkine (PMA), p of decrement [1] | GM-CSF (PMA), p of decrement [1] | IL-1β (PMA), p of decrement [1] | IL-5 (PMA), p of decrement [1] | IL-6 (PMA), p of decrement [1] | IL-10 (PMA), p of decrement [1] | IP-10 (PMA), p of decrement [1] | TGF-α (PMA), p of decrement [1]
Increase: G-CSF (PMA), p of decrement [1] | IL-1ra (PMA), p of decrement [1] | IL-1α (PMA), p of decrement [1] | IL-7 (PMA), p of decrement [1] | IL-8 (PMA), p of decrement [1] | MCP-1 (PMA), p of decrement [1] | MIP-1α (PMA), p of decrement [1] | MIP-1β (PMA), p of decrement [1] | RANTES (PMA), p of decrement [1]
P < 0.01: IL-12p40 (PMA), p of decrement [1]
P < 0.001: VEGF (PMA), p of decrement [1]
p < 0.05: IL-1β (PMA), p of decrement (24 h, TNF-α vs Lev 1.0 mM) | VEGF (PMA), p of decrement (24 h, TNF-α vs Lev 1.0 mM)
able to reduce the release: release of VEGF (FIG. 4 Panel A) (EoL-1 cells differentiated with PMA 24 h before the experiment)
